Key:
SUMO = target: T1, SUMO (Homo sapiens, UniProt Q9UBT2); experiment: SUMO activity (Table I, biological activities); assay type: biochemical; design: key: + (less active); ++ (active); +++ (most active)
T1 sequence (Q9UBT2 1-640): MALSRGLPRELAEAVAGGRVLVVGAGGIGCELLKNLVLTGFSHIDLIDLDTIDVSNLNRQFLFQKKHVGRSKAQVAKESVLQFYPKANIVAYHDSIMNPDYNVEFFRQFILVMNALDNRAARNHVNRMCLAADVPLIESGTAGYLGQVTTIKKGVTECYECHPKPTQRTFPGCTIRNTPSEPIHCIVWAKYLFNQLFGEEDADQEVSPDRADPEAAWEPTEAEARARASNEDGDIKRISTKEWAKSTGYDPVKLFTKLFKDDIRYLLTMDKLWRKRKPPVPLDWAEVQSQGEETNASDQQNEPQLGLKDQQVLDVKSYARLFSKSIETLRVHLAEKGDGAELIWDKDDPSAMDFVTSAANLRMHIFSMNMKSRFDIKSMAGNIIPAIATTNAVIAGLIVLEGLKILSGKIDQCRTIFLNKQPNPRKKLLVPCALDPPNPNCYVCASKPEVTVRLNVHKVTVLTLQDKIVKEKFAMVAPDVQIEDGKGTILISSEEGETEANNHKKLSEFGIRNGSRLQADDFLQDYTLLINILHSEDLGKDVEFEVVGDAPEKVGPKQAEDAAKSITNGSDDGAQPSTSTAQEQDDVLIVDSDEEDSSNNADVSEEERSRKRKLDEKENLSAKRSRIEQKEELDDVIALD
T1 sequence (Q9UBE0 1-346 partner): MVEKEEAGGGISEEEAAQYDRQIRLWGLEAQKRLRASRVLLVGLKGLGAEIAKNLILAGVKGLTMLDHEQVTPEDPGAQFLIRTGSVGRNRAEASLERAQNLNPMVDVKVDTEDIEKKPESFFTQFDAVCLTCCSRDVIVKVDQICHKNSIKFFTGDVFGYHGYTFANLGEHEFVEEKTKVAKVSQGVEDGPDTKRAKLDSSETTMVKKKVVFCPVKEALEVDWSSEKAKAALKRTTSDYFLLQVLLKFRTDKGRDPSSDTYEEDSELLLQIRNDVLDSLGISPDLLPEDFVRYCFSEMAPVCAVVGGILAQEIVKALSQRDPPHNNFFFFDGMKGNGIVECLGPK

c-Myc = c-Myc activity (Table I, biological activities); design: key: + (less active); ++ (active); +++ (most active)

Row | SMILES | SUMO (SUMO) | c-Myc (c-Myc)
1 | COC(=O)C1=C(C(N)=O)C2C=CC1(C(Cc1ccccc1)Nc1ccccc1)O2 (stereo not shown) [Compound 274] | +++ | ++
2 | COC(=O)C1=C(C(=O)NCCCN(C)C)C2C=CC1(C(Cc1ccccc1)Nc1ccccc1)O2 (stereo not shown) [Compound 389] | ++ | +
3 | COC(=O)C1=C(C(=O)NC2CCN(C(=O)C3CC3)CC2)C2C=CC1(C(Cc1ccccc1)Nc1ccccc1)O2 (stereo not shown) [Compound 377] | ++ | +
4 | CCOC(=O)C1=C(C(F)(F)F)C2(C(Cc3ccccc3)Nc3ccccc3)C=CC1O2 (stereo not shown) [Compound 298] | ++ | +
5 | COC(=O)C1=C(C(=O)NC2CCN(C(=O)c3ccc(Cl)cc3)CC2)C2C=CC1(C(Cc1ccccc1)Nc1ccccc1)O2 (stereo not shown) [Compound 380] | ++ | +
6 | CCOc1cccc(NC(Cc2ccccc2)C23C=CC(O2)C(C(=O)Nc2ccncc2)=C3C(=O)OC)c1 (stereo not shown) [Compound 253] | ++ | +
7 | COC(=O)C1=C(C(=O)Nc2ccc(F)cc2)C2C=CC1(C(Cc1ccccc1)Nc1ccccc1)O2 (stereo not shown) [Compound 166] | ++ | +
8 | COCCNC(=O)C1=C(C(=O)OC)C2(C(Cc3ccccc3)Nc3ccccc3)C=CC1O2 (stereo not shown) [Compound 403] | ++ | +
9 | COCCN1CCC(NC(=O)C2=C(C(=O)OC)C3(C(Cc4ccccc4)Nc4ccccc4)CCC2O3)CC1 (stereo not shown) [Compound 367] | + | +
10 | COC(=O)C1=C(C(=O)NC2CCN(C(C)C)CC2)C2C=CC1(C(Cc1ccccc1)Oc1ccccc1)O2 (stereo not shown) [Compound 324] | ++ | ++
11 | COC(=O)C1=C(C(=O)Nc2cccc(F)c2)C2C=CC1(C(Cc1ccccc1)Nc1ccccc1)O2 (stereo not shown) [Compound 276] | ++ | +
12 | COC(=O)C1=C(C(=O)Nc2cccnc2)C2C=CC1(C(Cc1ccccc1)Nc1ccccc1)O2 (stereo not shown) [Compound 223] | ++ | +
13 | COC(=O)C1=C(C(=O)NC2CCN(C(=O)C3CCN(C)CC3)CC2)C2C=CC1(C(Cc1ccccc1)Nc1ccccc1)O2 (stereo not shown) [Compound 378] | ++ | +
14 | CCOC(=O)C1=C(C(=O)OCC)C2(C(Cc3ccc(F)cc3)Nc3ccccc3)C=CC1O2 (stereo not shown) [Compound 446] | ++ | +
15 | COC(=O)C1=C(C(=O)NC2CCN(C(=O)c3cccc(F)c3)CC2)C2C=CC1(C(Cc1ccccc1)Nc1ccccc1)O2 (stereo not shown) [Compound 386] | ++ | +
16 | COC(=O)C1=C(C(=O)Nc2ccc(CN(C)C)cc2)C2C=CC1(C(Cc1ccccc1)Nc1ccccc1)O2 (stereo not shown) [Compound 506] | ++ | +
17 | CCCCC(Nc1cc(F)cc(F)c1)C12C=CC(O1)C(C(=O)NC1CCN(C)CC1)=C2C(=O)OC (stereo not shown) [Compound 266] | +++ | +
18 | CCN(CC)CCNC(=O)C1=C(C(=O)OC)C2(C(Cc3ccccc3F)Nc3cc(F)cc(F)c3)C=CC1O2 (stereo not shown) [Compound 456] | ++ | ++
19 | COC(=O)C1=C(C(=O)NC2CCN(C(=O)c3ccc(F)cc3)CC2)C2C=CC1(C(Cc1ccccc1)Nc1ccccc1)O2 (stereo not shown) [Compound 297] | ++ | ++
20 | COC(=O)C1=C(C(=O)OC)C2(C(Cc3ccc(C)cc3)Nc3cc(F)cc(F)c3)C=CC1O2 (stereo not shown) [Compound 428] | ++ | +
21 | CCOC(=O)C1=C(C(=O)N(C)C)C2C=CC1(C(Nc1ccccc1)c1ccc(CN3CCOCC3)cc1)O2 (stereo not shown) [Compound 590] | + | +
22 | CCCCC(Nc1ccccc1)C12C=CC(O1)C(C(=O)NC1CCN(C)CC1)=C2C(=O)OC (stereo not shown) [Compound 267] | ++ | ++
23 | COC(=O)C1=C(C(=O)NC2CCCCC2)C2C=CC1(C(Cc1ccccc1)Nc1ccccc1)O2 (stereo not shown) [Compound 160] | + | +
24 | COC(=O)C1=C(C(=O)NCCN2CCCC2)C2C=CC1(C(Cc1ccc(C)cc1)Nc1cc(F)cc(F)c1)O2 (stereo not shown) [Compound 442] | +++ | ++
25 | C=CCCC(Nc1ccccc1)C12C=CC(O1)C(C(=O)Nc1ccc(OC)cc1)=C2C(=O)OC (stereo not shown) [Compound 176] | ++ | +

Row | SMILES | SUMO (SUMO) | c-Myc (c-Myc)
26 | COC(=O)C1=C(C(=O)Nc2ccncc2)C2C=CC1(C(Cc1ccccc1)Nc1cc(F)cc(Cl)c1)O2 (stereo not shown) [Compound 220] | ++ | +
27 | CCN(CC)CCNC(=O)C1=C(C(=O)OC)C2C=CC1(C(Cc1ccccc1)Nc1cc(F)cc(F)c1)O2 (stereo not shown) [Compound 402] | ++ | +
28 | COC(=O)C1=C(C(=O)OC)C2(C(Nc3ccccc3)C3CCCC3)C=CC1O2 (stereo not shown) [Compound 186] | ++ | +
29 | CCOC(=O)C1=C(C(=O)NCCN2CCCC2)C2C=CC1(C(Cc1ccccc1)Nc1ccccc1)O2 (stereo not shown) [Compound 564] | ++ | +
30 | COC(=O)C1=C(C(=O)NC2CCN(CCO)CC2)C2C=CC1(C(Cc1ccccc1)Nc1ccccc1)O2 (stereo not shown) [Compound 279] | +++ | ++
31 | COC(=O)C1=C(C(=O)Nc2ccc(CN(C)C)c(F)c2)C2C=CC1(C(Cc1ccccc1)Nc1ccccc1)O2 (stereo not shown) [Compound 489] | ++ | +
32 | COC(=O)C1=C(C(=O)NC2CCN(C(=O)c3ccc(Cl)s3)CC2)C2C=CC1(C(Cc1ccccc1)Nc1ccccc1)O2 (stereo not shown) [Compound 392] | ++ | +
33 | COC(=O)C1=C(C(=O)Nc2ccc(OCCN(C)C)cc2)C2C=CC1(C(Cc1ccccc1)Nc1ccccc1)O2 (stereo not shown) [Compound 491] | +++ | +
34 | CCOC(=O)C1=C(C(=O)Nc2ccccc2)C2C=CC1(C(Nc1ccccc1)c1ccc(CN3CCOCC3)cc1)O2 (stereo not shown) [Compound 604] | ++ | +
35 | COC(=O)C1=C(C(=O)Nc2ccccc2)C2C=CC1(C(Cc1ccccc1)Nc1ccccc1)O2 (stereo not shown) [Compound 300] | +++ | +
36 | COC(=O)C1=C(C(=O)OC)C2(C(Cc3ccccc3)Nc3cccc(F)c3)C=CC1O2 (stereo not shown) [Compound 417] | ++ | +
37 | C=CCC(Nc1ccccc1)C12C=CC(O1)C(C(=O)NCCN(CC)CC)=C2C(=O)OC (stereo not shown) [Compound 416] | ++ | +
38 | Cc1ccc(S(=O)(=O)C2=CC3(C4OCCO4)C=CC2O3)cc1 (stereo not shown) [Compound 516] | ++ | +
39 | COC(=O)C1=C(C(=O)NCCNC(=O)Nc2ccccc2)C2C=CC1(C(Cc1ccccc1)Nc1ccccc1)O2 (stereo not shown) [Compound 395] | ++ | +
40 | COC(=O)C1=C(C(=O)NC2CCN(C(=O)CN(C)C)CC2)C2C=CC1(C(Cc1ccccc1)Nc1ccccc1)O2 (stereo not shown) [Compound 385] | ++ | +
41 | COC(=O)C1=C(C(=O)Nc2ccc(C)c(F)c2)C2C=CC1(C(Cc1ccccc1)Nc1ccccc1)O2 (stereo not shown) [Compound 285] | ++ | ++
42 | CCOC(=O)C1=C(C(F)(F)F)C2C=CC1(C1OCCO1)O2 (stereo not shown) [Compound 519] | ++ | +
43 | COC(=O)C1=C(C(=O)NC2CCN(S(C)(=O)=O)CC2)C2C=CC1(C(Cc1ccccc1)Nc1ccccc1)O2 (stereo not shown) [Compound 361] | ++ | +
44 | COC(=O)C1=C(C(=O)NCCN2CCCC2)C2C=CC1(C(Cc1ccc(Cl)cc1)Nc1cc(F)cc(F)c1)O2 (stereo not shown) [Compound 441] | +++ | ++
45 | COC(=O)C1=C(C(=O)NC2CCN(Cc3ccccc3)CC2)C2C=CC1(C(Cc1ccccc1)Nc1ccccc1)O2 (stereo not shown) [Compound 288] | ++ | ++
46 | COC(=O)C1=C(C(=O)NCc2ccccn2)C2C=CC1(C(Cc1ccccc1)Nc1ccccc1)O2 (stereo not shown) [Compound 396] | + | ++
47 | COC(=O)C1=C(C(=O)NCCN(C)C)C2C=CC1(C(Cc1ccccc1)Nc1cc(F)cc(Cl)c1)O2 (stereo not shown) [Compound 227] | +++ | +
48 | CCOC(=O)C1=C(C(=O)Nc2ccc(C)c(F)c2)C2C=CC1(C(Oc1ccc(F)cc1)c1ccc(CN3CCOCC3)cc1)O2 (stereo not shown) [Compound 486] | + | ++
49 | COC(=O)C1=C(C(=O)OC)C2(C(Cc3ccc(C(F)(F)F)cc3)Nc3ccccc3)C=CC1O2 (stereo not shown) [Compound 422] | ++ | +
50 | COC(=O)C1=C(C(=O)Nc2ccc(CN3CCN(C)CC3)cc2)C2C=CC1(C(Cc1ccccc1)Nc1ccccc1)O2 (stereo not shown) [Compound 504] | ++ | +
